Key:
[1] = test system: healthy, nondependent, recreational stimulant users with intranasal insufflation experience; test: Intranasal abuse potential, VAS pharmacodynamic scores (Example 5); assay type: in vivo, human; settings: SDX Cl 80 mg
Procedure: Subjects who successfully completed the Screening Period returned to the clinic to complete the Drug Discrimination Phase. The Drug Discrimination Test was performed to ensure that subjects can differentiate between the effects of a single dose of d-methylphenidate hydrochloride and placebo, administered intranasally. Subjects who successfully completed the Drug Discrimination Phase remained as inpatients to enter the Treatment Phase. The Drug Discrimination Phase was a double-blind, intranasal, single-dose, 2-treatment, 2-period, 2-sequence, randomized, crossover design.
The placebo dose consisted of 80 mg of microcrystalline cellulose to create the same volume.
On dosing days in the Treatment Phase, blood samples were collected for the measurement of the plasma concentrations of SDX, d-methylphenidate (d-MPH), l-methylphenidate (l-MPH) and ritalinic acid at predose and at 0.25, 0.5, 0.75, 1, 1.5, 2, 3, 4, 5, 6, 7, 8, 9, 10, 12, 16, 24, 36, and 48 hours±5 minutes after each dose of study drug. […] All VAS pharmacodynamic assessments except Take Drug Again and Overall Drug Liking were performed at 0.25, 0.5, 0.75, 1, 1.5, 2, 3, 4, 5, 6, 7, 8, 10, 12, 24 hours±5 minutes postdose. In addition, predose assessments of Feeling High, and Drowsiness/Alertness were collected. The Take Drug Again and Overall Drug Liking VAS assessments were performed at 12 and 24 hours±5 minutes postdose.

[2] = test system: healthy, nondependent, recreational stimulant users with intranasal insufflation experience; test: Treatment-emergent adverse events, intranasal study (Example 5, Table 54)
Procedure: The study consisted of a Screening Period, an in-clinic Drug Discrimination Phase, a Treatment Phase, and a Follow-Up Visit.
All subjects were required to fast for at least 8 hours prior to each dose of study drug until approximately 4 hours after each dose. Abuse potential measures and pharmacokinetic samples were collected at different times after the administration of study drug. Subjects who successfully completed the Drug Discrimination Phase and who qualified for the Treatment Phase remained as inpatients to enter the Treatment Phase.

[3] = test system: healthy, nondependent, recreational stimulant users; test: Oral abuse potential, VAS pharmacodynamic scores (Example 4); settings: for Drug Liking Emax (mean) / Drug Liking Emax (median) / Feeling Alert/Drowsy Emax (mean) / Feeling Alert/Drowsy Emax (median) / Overall Drug Liking Emax (mean) / Overall Drug Liking Emax (median) / Take Drug Again Emax (mean) / Take Drug Again Emax (median): bipolar VAS; for Any Effects Emax (mean) / Any Effects Emax (median) / Bad Effects Emax (mean) / Bad Effects Emax (median) / Feeling High Emax (mean) / Feeling High Emax (median) / Good Effects Emax (mean) / Good Effects Emax (median): unipolar VAS
[4] = d-MPH HCl 40 mg, 12 hours, bipolar VAS
[5] = d-MPH HCl 40 mg, 24 hours, bipolar VAS
[6] = d-MPH HCl 40 mg (N = 46), SDX Cl 80 mg (N = 46)
[7] = SDX Cl 120 mg, Focalin XR 80 mg, phentermine HCl 60 mg

## COC(=O)[C@H](c1ccccc1)[C@H]1CCCCN1C(=O)OC[n+]1cccc(C(=O)N[C@@H](CO)C(=O)O)c1.[Cl-] [serdexmethylphenidate chloride]
[1]
  Mean difference Drug Liking Emax vs placebo: 19.9
  Mean difference Overall Drug Liking vs placebo, 12 hours: 10.3
  Mean difference Overall Drug Liking vs placebo, Emax: 11.5
[1]; d-MPH HCl 40 mg
  Mean difference Any Effect Emax vs placebo: 48.8
  Mean difference Ease of Nasal Insufflation Emax vs placebo: 59.0
  Mean difference Feeling Drowsy/Alert Emax vs placebo: 20.1
  Mean difference Feeling High Emax vs placebo: 40.7
  Mean difference Good Effects Emax vs placebo: 44.2
  Mean difference Overall Drug Liking vs placebo, 24 hours: 8.8
  Mean difference Take Drug Again vs placebo, 12 hours: 7.6
  Mean difference Take Drug Again vs placebo, 24 hours: 6.7
  Mean difference Take Drug Again vs placebo, Emax: 10.8
  Median difference Bad Effects Emax vs placebo: 9.5
[1]; [4]
  Mean Overall Drug Liking: 60.4
  Mean Take Drug Again: 56.7
  Median Overall Drug Liking: 58
  Median Take Drug Again: 51
[1]; [5]
  Mean Overall Drug Liking: 59.0
  Mean Take Drug Again: 55.8
  Median Overall Drug Liking: 55
  Median Take Drug Again: 50
[1]; d-MPH HCl 40 mg, bipolar VAS
  Drug Liking Emax (mean): 71.0
  Drug Liking Emax (median): 71
  Feeling Drowsy/Alert Emax (mean): 71.2
  Feeling Drowsy/Alert Emax (median): 71
  Overall Drug Liking Emax (mean): 61.8
  Overall Drug Liking Emax (median): 58
  Take Drug Again Emax (mean): 60.0
  Take Drug Again Emax (median): 56
[1]; d-MPH HCl 40 mg, bipolar VAS, listed as SDX chloride
  Drug Liking Emax (mean): 71
[1]; d-MPH HCl 40 mg, unipolar VAS
  Any Effect Emax (mean): 49.4
  Any Effect Emax (median): 47
  Bad Effects Emax (mean): 14.9
  Bad Effects Emax (median): 1
  Ease of Nasal Insufflation (mean): 65.8
  Ease of Nasal Insufflation (median): 71
  Feeling High Emax (mean): 43.4
  Feeling High Emax (median): 36
  Good Effects Emax (mean): 44.9
  Good Effects Emax (median): 42
[2]; SDX Cl 80 mg vs d-MPH HCl 40 mg
  nasal discomfort, nasal congestion, rhinorrhoea, epistaxis, increased lacrimation, frequency vs intranasal d-MPH HCl: occurred more often
[2]; [6]
  TEAE: Back pain: 0 n (%) [E]
  TEAE: Blood pressure diastolic increased: 0 n (%) [E]
  TEAE: Bruxism: 0 n (%) [E]
  TEAE: Change in sustained attention: 0 n (%) [E]
  TEAE: Chest discomfort: 0 n (%) [E]
  TEAE: Decreased appetite: 0 n (%) [E]
  TEAE: Defaecation urgency: 0 n (%) [E]
  TEAE: Dry mouth: 0 n (%) [E]
  TEAE: Dry throat: 0 n (%) [E]
  TEAE: Dysmenorrhoea (menstrual cramps): 0 n (%) [E]
  TEAE: Dyspepsia: 0 n (%) [E]
  TEAE: Energy increased: 0 n (%) [E]
  TEAE: Eye irritation: 0 n (%) [E]
  TEAE: Feeling hot: 0 n (%) [E]
  TEAE: Flushing: 0 n (%) [E]
  TEAE: Haematoma: 0 n (%) [E]
  TEAE: Hypopnoea (shallow breathing): 0 n (%) [E]
  TEAE: Infections and infestations: 0 n (%) [E]
  TEAE: Investigations: 0 n (%) [E]
  TEAE: Metabolism and nutrition disorders: 0 n (%) [E]
  TEAE: Muscle tightness: 0 n (%) [E]
  TEAE: Muscle twitching: 0 n (%) [E]
  TEAE: Neck pain: 0 n (%) [E]
  TEAE: Obsessive-compulsive disorder: 0 n (%) [E]
  TEAE: Peripheral swelling: 0 n (%) [E]
  TEAE: Pharyngeal hypoaesthesia (numbness of throat): 0 n (%) [E]
  TEAE: Pharyngitis: 0 n (%) [E]
  TEAE: Phlebitis superficial: 0 n (%) [E]
  TEAE: Phonophobia (fear of loud noises): 0 n (%) [E]
  TEAE: Photophobia: 0 n (%) [E]
  TEAE: Pyrexia: 0 n (%) [E]
  TEAE: Reproductive system and breast disorders: 0 n (%) [E]
  TEAE: Restlessness: 0 n (%) [E]
  TEAE: Sinus tachycardia: 0 n (%) [E]
  TEAE: Tachycardia: 0 n (%) [E]
  TEAE: Testis discomfort: 0 n (%) [E]
  TEAE: Vascular disorders: 0 n (%) [E]
  TEAE: Ventricular extrasystoles: 0 n (%) [E]
  TEAE: Vessel puncture site bruise: 0 n (%) [E]
  TEAE: Vessel puncture site pain: 0 n (%) [E]
  TEAE: Visual impairment: 0 n (%) [E]
  TEAE: Vomiting: 0 n (%) [E]
[3]; SDX Cl 120 mg, Focalin XR 80 mg
  Mean difference Bad Effects Emax vs placebo: 1.3
[3]; [7]
  Mean difference Any Effects Emax vs placebo: 11.0
  Mean difference Drug Liking Emax vs placebo: 6.8
  Mean difference Feeling Alert/Drowsy Emax vs placebo: 7.7
  Mean difference Feeling High Emax vs placebo: 10.4
  Mean difference Good Effects Emax vs placebo: 12.1
  Mean difference Overall Drug Liking Emax vs placebo: 3.8
  Mean difference Take Drug Again Emax vs placebo: 2.2
  Drug Liking Emax (mean): 62.8
  Drug Liking Emax (median): 53.0
  Feeling Alert/Drowsy Emax (mean): 64.4
  Feeling Alert/Drowsy Emax (median): 54.0
  Overall Drug Liking Emax (mean): 58.5
  Overall Drug Liking Emax (median): 50.0
  Take Drug Again Emax (mean): 57.4
  Take Drug Again Emax (median): 50.0
  Any Effects Emax (mean): 28.8
  Any Effects Emax (median): 14.0
  Bad Effects Emax (mean): 6.04
  Bad Effects Emax (median): 0.0
  Feeling High Emax (mean): 25.6
  Feeling High Emax (median): 7.0
  Good Effects Emax (mean): 27.0
  Good Effects Emax (median): 10.0
[3]; SDX Cl 240 mg
  Mean difference Any Effects Emax vs placebo: 20.5
  Mean difference Bad Effects Emax vs placebo: 8.6
  Mean difference Drug Liking Emax vs placebo: 8.3
  Mean difference Feeling Alert/Drowsy Emax vs placebo: 11.2
  Mean difference Feeling High Emax vs placebo: 18.8
  Mean difference Good Effects Emax vs placebo: 17.4
  Mean difference Overall Drug Liking Emax vs placebo: 3.3
  Mean difference Take Drug Again Emax vs placebo: 1.7
  Drug Liking Emax (mean): 63.8
  Drug Liking Emax (median): 59.0
  Feeling Alert/Drowsy Emax (mean): 67.4
  Feeling Alert/Drowsy Emax (median): 64.0
  Overall Drug Liking Emax (mean): 58.0
  Overall Drug Liking Emax (median): 51.0
  Take Drug Again Emax (mean): 56.9
  Take Drug Again Emax (median): 50.0
  Any Effects Emax (mean): 37.0
  Any Effects Emax (median): 23.0
  Bad Effects Emax (mean): 13.4
  Bad Effects Emax (median): 0.0
  Feeling High Emax (mean): 32.1
  Feeling High Emax (median): 19.0
  Good Effects Emax (mean): 30.8
  Good Effects Emax (median): 15.0

From patent publication US20190381017A1, “Compositions Comprising Serdexmethylphenidate Conjugates And Methods Of Use Thereof” (KemPharm, Inc., priority 2018, published 2019)
